Biological target: T1, human IDO1 (Homo sapiens, UniProt P14902)
T1 construct: expressed in transfected cells
Assay: HEK293 cell-based indoleamine 2,3-dioxygenase (IDO) assay
Settings: human IDO1/HEK293 cells, 20 hours incubation; read-out: IDO1 HEK Human IC50
Protocol: Assessment of inhibitor activity in HEK293 cell-based indoleamine 2,3-dioxygenase (IDO) assay.
HEK293 cells were transfected with a pCDNA-based mammalian expression vector harboring human IDO1 cDNA (NM 002164.2) by electroporation. They were cultured in medium (DMEM with 10% FBS) containing 1 mg/ml G418 for two weeks. Clones of HEK293 cells that stably expressed human IDO1 protein were selected and expanded for IDO inhibition assay.
The human IDO1/HEK293 cells were seeded at 10,000 cells per 50 μL per well with RPMI/phenol red free media contains 10% FBS in a 384-well black wall clear bottom tissue culture plate (Matrix Technologies LLC) 100 nL of certain concentration of compound was then added to each well using ECHO liquid handling systems. The cells were incubated for 20 hours in 37° C. incubator with 5% CO2.
The compound treatments were stopped by adding trichloroacetic acid (Sigma-Aldrich) to a final concentration at 0.2%. The cell plate was further incubated at 50° C. for 30 minute. The equal volume supernatant (20 μL) and 0.2% (w/v) Ehrlich reagent (4-dimethylaminobenzaldehyde, Sigma-Aldrich) in glacial acetic acid were mixed in a new clear bottom 384-well plate. This plate was then incubated at room temperature for 30 minute. The absorbance at 490 nm was measured on Envision plate reader.
Compound IC50 values were calculated using the counts of 500 nM of a reference standard treatment as one hundred percent inhibition, and counts of no compound but DMSO treatment as zero percent inhibition.
Activity for compounds described herein is provided in Table 1, wherein potency levels are provided as follows: (Potency: IDO IC50: A<0.01 μM; B<0.1 μM; C<10 μM)

T1 sequence (P14902 whole entry): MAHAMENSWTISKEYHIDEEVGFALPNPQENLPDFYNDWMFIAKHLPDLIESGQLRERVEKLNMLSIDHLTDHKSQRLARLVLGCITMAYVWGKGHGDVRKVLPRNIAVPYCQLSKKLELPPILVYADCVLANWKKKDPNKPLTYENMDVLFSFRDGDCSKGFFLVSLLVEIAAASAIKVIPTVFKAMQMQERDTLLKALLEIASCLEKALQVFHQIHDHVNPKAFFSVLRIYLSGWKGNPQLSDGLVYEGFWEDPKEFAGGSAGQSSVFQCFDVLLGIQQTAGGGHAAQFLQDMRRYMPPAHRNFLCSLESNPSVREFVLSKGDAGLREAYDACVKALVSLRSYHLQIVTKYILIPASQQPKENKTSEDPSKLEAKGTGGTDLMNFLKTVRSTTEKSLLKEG

IC50 [nM]	Compound
55	CC[C@@H](NC(=O)c1ccc(OC)nc1)[C@H]1CC[C@@H](c2ccnc3ccc(F)cc32)CC1 (single isomer, unassigned) [Example 10c, N-(1-(4-(6-Fluoroquinolin-4-yl)cyclohexyl)propyl)-6-methoxynicotinamide]
488	COCCOc1ccc(-c2ccc(C(=O)N[C@H](C)[C@H]3CC[C@@H](c4ccnc5ccc(F)cc54)CC3)cn2)cc1 [Example 6]
224	CC[C@@H](NC(=O)c1ccc(OC)nc1)[C@H]1CC[C@@H](c2ccnc3ccc(F)cc32)CC1 (single isomer, unassigned) [Example 10a, N-(1-(4-(6-Fluoroquinolin-4-yl)cyclohexyl)propyl)-6-methoxynicotinamide]
37	CC[C@@H](NC(=O)c1ccc(OC)nc1)[C@H]1CC[C@@H](c2ccnc3ccc(F)cc32)CC1 (single isomer, unassigned) [Example 10d, N-(1-(4-(6-Fluoroquinolin-4-yl)cyclohexyl)propyl)-6-methoxynicotinamide]
252	C[C@@H](NC(=O)c1ccc(O)nc1)[C@H]1CC[C@@H](c2ccnc3ccc(F)cc32)CC1 [Example 3, N-((R)-1-((1s,4S)-4-(6-Fluoroquinolin-4-yl)cyclohexyl)ethyl)-6-hydroxynicotinamide]

Biological target: indoleamine 2,3-dioxygenase (IDO) (Homo sapiens, UniProt P14902)
Sequence (P14902 whole entry): as above
Assay: HeLa cell-based indoleamine 2,3-dioxygenase (IDO) assay (kynurenine production, IFNγ-stimulated)
Settings: HeLa cells, IFNγ 25 ng/mL, 48 hour incubation; read-out: IDO Hela IC50

IC50 [nM]	Compound
120	CC[C@@H](NC(=O)c1ccc(OC)nc1)[C@H]1CC[C@@H](c2ccnc(F)c2C)CC1 (single isomer, unassigned) [Example 56b, N-(1-(4-(2-fluoro-3-methylpyridin-4-yl)cyclohexyl)propyl)-6-methoxynicotinamide]
390	COC[C@H](NC(=O)c1ccc(OC)nc1)[C@H]1CC[C@@H](c2ccnc(OC)c2C(F)F)CC1 (single isomer, unassigned) [Example 51b, N-(1-(4-(3-(difluoromethyl)-2-methoxypyridin-4-yl)cyclohexyl)-2-methoxyethyl)-6-methoxynicotinamide]
380	CC[C@@H](NC(=O)c1cnc(OC)nc1)[C@H]1CC[C@@H](c2ccnc(OC)c2F)CC1 (single isomer, unassigned) [Example 21d, N-(1-(4-(3-Fluoro-2-methoxypyridin-4-yl)cyclohexyl)propyl)-2-methoxypyrimidine-5-carboxamide]
100	CCC(NC(=O)c1ccc(OC)nc1)C1CCC(c2ccnc3ccc(C(F)(F)F)cc23)CC1 (single isomer, unassigned) [Example 11a, 6-Methoxy-N-(1-((1s,4s)-4-(6-(trifluoromethyl)quinolin-4-yl)cyclohexyl)propyl)nicotinamide]
250	CC[C@@H](NC(=O)c1ccc(OC)nc1)[C@H]1CC[C@@H](c2cnc3ccccc3c2)CC1 (single isomer, unassigned) [Example 20a, 6-Methoxy-N-(1-(4-(quinolin-3-yl)cyclohexyl)propyl)nicotinamide]
970	CC[C@@H](NC(=O)c1ccc(OC)nc1)[C@H]1CC[C@@H](c2ccn(C)c(=O)c2)CC1 (single isomer, unassigned) [Example 31b, 6-Methoxy-N-(1-(4-(1-methyl-2-oxo-1,2-dihydropyridin-4-yl)cyclohexyl)propyl)nicotinamide]
10	CCC(NC(=O)c1ccnc(N2CCOCC2)c1)C1CCC(c2ccnc(OC)c2C(F)F)CC1 (single isomer, unassigned) [Example 26b, N-(1-((1s,4s)-4-(3-(Difluoromethyl)-2-methoxypyridin-4-yl)cyclohexyl)propyl)-2-morpholinoisonicotinamide]
10	CCC(NC(=O)c1ccc(OC)nc1)C1CCC(c2ccnc3cc(C(F)(F)F)ccc23)CC1 (single isomer, unassigned) [Example 19b, 6-Methoxy-N-(1-((1s,4s)-4-(7-(trifluoromethyl)quinolin-4-yl)cyclohexyl)propyl)nicotinamide]
360	CCC(NC(=O)c1cnc(OC)nc1)C1CCC(c2ccnc3c(F)cc(F)cc23)CC1 (single isomer, unassigned) [Example 58c]
30	COc1ccc(C(=O)N[C@H](CC2(C)COC2)[C@H]2CC[C@@H](c3ccnc4ccc(C(F)(F)F)cc43)CC2)cn1 (single isomer, unassigned) [Example 17a, 6-Methoxy-N-(2-(3-methyloxetan-3-yl)-1-(4-(6-(trifluoromethyl)quinolin-4-yl)cyclohexyl)ethyl)nicotinamide]
20	COc1ccc(C(=O)NC(C)C2(O)CCC(c3ccnc4ccc(F)cc34)CC2)cn1 (single isomer, unassigned) [Example 62b, N-(1-((1r,4r)-4-(6-fluoroquinolin-4-yl)-1-hydroxycyclohexyl)ethyl)-6-methoxynicotinamide]
270	CCC(NC(=O)c1ccc(OC)nc1)C1CCC(c2cccc(OC(F)F)n2)CC1 (single isomer, unassigned) [Example 48c, N-(1-(4-(6-(difluoromethoxy)pyridin-2-yl)cyclohexyl)propyl)-6-methoxynicotinamide]
990	CC[C@H](NC(=O)c1ccc(OC)nc1)[C@H]1CC[C@@H](c2cncc(OC)c2)CC1 (single isomer, unassigned) [Example 50a, 6-methoxy-N-(1-(4-(5-methoxypyridin-3-yl)cyclohexyl)propyl)nicotinamide]
40	COCCOCC(NC(=O)c1cnc(OC)nc1)C1CCC(c2ccnc3ccc(F)cc23)CC1 (single isomer, unassigned) [Example 16a, N-(1-((1s,4s)-4-(6-Fluoroquinolin-4-yl)cyclohexyl)-2-(2-methoxyethoxy)ethyl)-2-methoxypyrimidine-5-carboxamide]

Same assay, conditions: HeLa cells; potency class; read-out: Patent Potency Hela IC50 A < 10 nM, B > 10 nM, C > 100 nM

IC50 [nM]	Compound
> 100	CC[C@@H](NC(=O)c1ccc(OC)nc1)[C@H]1CC[C@@H](c2ccnc3ncccc32)CC1 (single isomer, unassigned) [Example 53c, N-(1-(4-(1,8-naphthyridin-4-yl)cyclohexyl)propyl)-6-methoxynicotinamide]
> 100	CCC(NC(=O)c1ccnc(N2CCOCC2)c1)C1CCC(c2ccnc(OC)c2C(F)F)CC1 (single isomer, unassigned) [Example 26a, N-(1-((1s,4s)-4-(3-(Difluoromethyl)-2-methoxypyridin-4-yl)cyclohexyl)propyl)-2-morpholinoisonicotinamide]
> 100	CC[C@@H](NC(=O)c1ccc(OC)nc1)[C@H]1CC[C@@H](c2ccn(C)c(=O)c2)CC1 (single isomer, unassigned) [Example 31d, 6-Methoxy-N-(1-(4-(1-methyl-2-oxo-1,2-dihydropyridin-4-yl)cyclohexyl)propyl)nicotinamide]
< 10	CCC(NC(=O)c1ccc(OC)nc1)C1CCC(c2ccnc(F)c2C)CC1 (mixture of isomers) [Example 55, (+/−)-Cis and trans-N-(1-(4-(2-fluoro-3-methylpyridin-4-yl)cyclohexyl)propyl)-6-methoxynicotinamide]
< 10	[2H]C([2H])([2H])Oc1ccc(C(=O)NC(CC)[C@H]2CC[C@@H](c3ccnc(OC)c3C(F)F)CC2)cn1 (mixture of isomers) [Example 65, (±)-N-(1-((1s,4s)-4-(3-(difluoromethyl)-2-methoxypyridin-4-yl)cyclohexyl)propyl)-6-(methoxy-d3)nicotinamide]
< 10	CCC(NC(=O)c1cnc(OC)nc1)C1CCC(c2ccnc3c(F)cc(F)cc23)CC1 (single isomer, unassigned) [Example 58d]
> 100	CCC(NC(=O)c1ccc(OC)nc1)C1CCC(c2cccc(C(F)(F)F)n2)CC1 (single isomer, unassigned) [Example 47c, 6-methoxy-N-(1-(4-(6-(trifluoromethyl)pyridin-2-yl)cyclohexyl)propyl)nicotinamide]
> 100	CC[C@H](NC(=O)c1cnc(C)nc1)[C@H]1CC[C@H](c2ccnc3c(F)cccc32)CC1 (single isomer, unassigned) [Example 61c, N-(1-(4-(8-fluoroquinolin-4-yl)cyclohexyl)propyl)-2-methylpyrimidine-5-carboxamide]
< 10	COC[C@H](NC(=O)c1ccc(OC)nc1)[C@H]1CC[C@@H](c2ccnc(OC)c2C(F)F)CC1 (single isomer, unassigned) [Example 51a, N-(1-(4-(3-(difluoromethyl)-2-methoxypyridin-4-yl)cyclohexyl)-2-methoxyethyl)-6-methoxynicotinamide]
< 10	CCC(NC(=O)c1ccc(OC)nc1)C1CCC(c2ccnc3c(F)cc(F)cc23)CC1 (single isomer, unassigned) [Example 57b]
> 100	CCC(NC(=O)c1ccc(OC)nc1)C1CCC(c2cccc(OC(F)F)n2)CC1 (single isomer, unassigned) [Example 48d, N-(1-(4-(6-(difluoromethoxy)pyridin-2-yl)cyclohexyl)propyl)-6-methoxynicotinamide]
